According to patent publication US11702415B2, “Crystalline hydrate of a JAK inhibitor compound” (THERAVANCE BIOPHARMA R&D IP, LLC, priority 2020, dated 2023):

Legend:
[1] = Lung S9 metabolism; format: in vitro ADME, human; conditions: for Compound Remaining at 60 min: human lung S9, 1 μM compound, 1 mg/mL protein, NADPH and PAPS; for Sulfate Appearance: human lung S9, qualitative, O-sulfate metabolite peak
Protocol: The in vitro metabolic stability of compounds 1 and C-1 were evaluated in human lung S9 fraction (1 μM compound; 1 mg/mL S9 protein). The time 0, 15, 30, and 60 minute samples were analyzed for parent compound by high resolution LC-MS/MS. Lung S9 fractions from human (lot 1410245) were purchased from XenoTech LLC (Lenexa, Kans.). NADPH (Sigma Aldrich, N1630) and 3-phosphoadenosine 5-phosphosulfate (PAPS) (Sigma Aldrich, A1651) were purchased from Sigma Aldrich (St. Louis, Mo.). Acetonitrile and water were obtained from VWR (Radnor, Pa.) and were of HPLC grade or better. Raloxifene and formic acid was purchased from Sigma Aldrich (St. Louis, Mo.). Lung S9 incubations were performed in a water bath at 37° C. in a 96-well polypropylene plate. Lung S9 solutions consisted of 100 mM potassium phosphate buffered to pH 7.4 (BD Biosciences, Woburn, Mass.) supplemented with 1 mM NADPH (Sigma-Aldrich, St. Louis, Mo.), 3 mM magnesium chloride (Sigma Aldrich, M1028) and in the presence of 100 μM PAPS (Sigma-Aldrich, St. Louis, Mo.) cofactor, with final incubation protein concentrations of 1 mg/mL. 10 mM DMSO stocks of Raloxifene (n=1) and compound (n=1) were diluted in buffer and spiked into the incubations to yield 1 μM substrate concentrations ([…]). Incubation volumes consisted of 400 μL and time points were taken at 0, 15, 30, and 60 minutes by the removal of a 70 μL aliquot and dilution into 140 μL acetonitrile (0% formic acid). All samples were centrifuged at 2250 g for 10 minutes at 5° C. Supernatant (50 μL) was taken from the centrifuged samples and diluted into 100 μL HPLC water containing internal standard. The samples were run on a Dionex Ultimate 3000 Auto sampler and analyzed using a Thermo Q-Exactive High Resolution Mass Spectrometer (Thermo, Waltham, Mass.) in Full Scan mode in conjunction with an Atlantis T3 column 3 μM-2.1×50 mm (Waters Inc., 186003717). Mobile Phase A consisted of Water+0.2% formic acid and Mobile Phase B consisted of acetonitrile+0.2% formic acid. Peak integration was accomplished using Gubbs GMSU software (Gubbs Inc., Alpharetta, Ga.). For each sample, peak area ratios were calculated by dividing the analyte peak area by the internal standard peak area. For each incubation, the peak area ratios of the analytes in each t0 was set to 100%, and the peak areas ratios from the 60-minute samples were converted to percentages remaining relative to the corresponding t0. Determination of sulfate metabolite formation was made qualitatively by observation of early-eluting peak in the parent ion channel which, based on historical internal data, corresponded to the O-sulfate metabolite of each parent compound.

[2] = system: IL-13 induced pSTAT6 in lung tissue; assay: Murine model of IL-13 induced pSTAT6 induction in lung tissue; format: in vivo; conditions: mouse lung, oral aspiration 1 mg/mL 50 μL, IL-13 challenge 4 h after dose
Protocol: IL-13 binds to cell surface receptors activating members of the Janus family of kinases (JAK) which then phosphorylate STAT6 and subsequently activates further transcription pathways. In the described model, a dose of IL-13 was delivered locally into the lungs of mice to induce the phosphorylation of STAT6 (pSTAT6) which is then measured as the endpoint.
Activity in the model is evidenced by a decrease in the level of pSTAT6 present in the lungs of treated animals at 5 hours compared to the vehicle treated, IL-13 challenged control animals. The difference between the control animals which were vehicle-treated, IL-13 challenged and the control animals which were vehicle-treated, vehicle challenged dictated the 0% and 100% inhibitory effect, respectively, in any given experiment.

[3] = Pharmacokinetics in plasma and lung in mouse; format: in vivo; conditions: single oral aspiration, 0.2 mg/mL 50 μL
Protocol: Plasma and lung concentrations of test compound and ratio thereof were determined in the following manner. BALB/c mice from Charles River Laboratories were used in the assay. […] At various time points (typically 0.167, 2, 6, 24 hr) post dosing, blood samples were removed via cardiac puncture and intact lungs were excised from the mice.

[4] = Stability study at accelerated temperature and relative humidity (HPLC); format: physicochemical; conditions: samples of Form I
[5] = Dynamic moisture sorption assessment; format: physicochemical
Protocol: Dynamic moisture sorption (DMS) measurement was performed using a VTI atmospheric microbalance, SGA-100 system (VTI Corp., Hialeah, Fla. 33016). A weighed sample was used and the humidity was lowest possible value (close to 0% RH) at the start of the analysis. The DMS analysis consisted of an initial drying step (˜0% RH) for 16 hours, followed by two cycles of sorption and desorption with a scan rate of 5% RH/step over the humidity range of 5% RH to 90% RH. The DMS run was performed isothermally at 25° C.

[6] = system: hospitalized patients with COVID-19; conditions: in combination with remdesivir versus placebo with remdesivir, within 29 days after initiating treatment; cited from earlier work
[7] = system: patients with steroid-refractory acute or chronic GVHD; conditions: 95 patients, salvage therapy, including lung GVHD; cited from earlier work

CCc1cc(O)ccc1-c1ccc2c(-c3nc4c([nH]3)CN(C(C)C)[C@H](C(=O)N3CC(N(C)C)C3)C4)n[nH]c2c1 [Compound 1, (S)-(3-(dimethylamino)azetidin-1-yl)(2-(6-(2-ethyl-4-hydroxyphenyl)-1H-indazol-3-yl)-5-isopropyl-4,5,6,7-tetrahydro-3H-imidazo[4,5-c]pyridin-6-yl)methanone]
sulfation metabolism compared to fluoro analog C-1 ([1]; human lung S9): significantly less sulfation metabolism | Compound Remaining at 60 min [1]: 81% | Sulfate Appearance [1]: Yes | pSTAT6 inhibition at 5 hours [2]: 75 | Lung Tissue AUC(0-24) [3]: 54.5 µg·h/g | Compound 1 content by HPLC ([4]; T = 0): 97.5% a/a | Compound 1 content by HPLC ([4]; T = 1 month, 40° C./75% RH): 97.5% a/a | Compound 1 content by HPLC ([4]; T = 3 month, 25° C./60% RH): 97.6% a/a | Compound 1 content by HPLC ([4]; T = 3 month, 40° C./75% RH): 97.5% a/a

CCc1cc(O)ccc1-c1ccc2c(-c3nc4c([nH]3)CN(C(C)C)[C@H](C(=O)N3CC(N(C)C)C3)C4)n[nH]c2c1 [Form I, (S)-(3-(dimethylamino)azetidin-1-yl)(2-(6-(2-ethyl-4-hydroxyphenyl)-1H-indazol-3-yl)-5-isopropyl-4,5,6,7-tetrahydro-3H-imidazo[4,5-c]pyridin-6-yl)methanone hydrate Form I]
hygroscopicity ([5]; dynamic moisture sorption, 25° C.): moderately hygroscopic | total moisture uptake ([5]; relative humidity between 0% and 90% at room temperature): about 5.3%

CCS(=O)(=O)N1CC(CC#N)(n2cc(-c3ncnc4[nH]ccc34)cn2)C1 [baricitinib]
time to recovery [6]: reduce time to recovery

N#CC[C@H](C1CCCC1)n1cc(-c2ncnc3[nH]ccc23)cn1 [ruxolitinib]
clinical response in GVHD patients [7]: complete or partial response to ruxolitinib in the majority of patients

CCc1cc(O)c(F)cc1-c1ccc2c(-c3nc4c([nH]3)CN(C(C)C)[C@H](C(=O)N3CC(N(C)C)C3)C4)n[nH]c2c1 [Compound C-1, (S)-(3-(dimethylamino)azetidin-1-yl)(2-(6-(2-ethyl-5-fluoro-4-hydroxyphenyl)-1H-indazol-3-yl)-5-isopropyl-4,5,6,7-tetrahydro-3H-imidazo[4,5-c]pyridin-6-yl)methanone, reference compound]
Compound Remaining at 60 min [1]: 6% | Sulfate Appearance [1]: Yes
